The target in one test is PI3K-γ (Mus musculus (Mouse), UniProt Q9JHG7). Put plainly: PI3K-γ selective cellular assay: phospho-AKT in C5a stimulated RAW264.7 macrophages. The following applies: ratio of RAJI p110 δ assay IC50 to Raw264.7 p110 γ assay IC50. Format: cell-based.
The target of test [1] is γ isoform of human Class I PI3 kinases (Homo sapiens (Human), UniProt P48736). The experiment in a line: PI3-Kinase Promega ADP-Glo Max assay, γ isoform. It counts as biochemical. The settings on record: for PI3K δ/PI3K γ IC50 (selectivity): ratio of PI3K δ IC50 to PI3K γ IC50. A general note: ADP-Glo turns the ADP formed in a reaction into a luminescent signal.
Chain of γ isoform of human Class I PI3 kinases (P48736 whole entry, canonical isoform): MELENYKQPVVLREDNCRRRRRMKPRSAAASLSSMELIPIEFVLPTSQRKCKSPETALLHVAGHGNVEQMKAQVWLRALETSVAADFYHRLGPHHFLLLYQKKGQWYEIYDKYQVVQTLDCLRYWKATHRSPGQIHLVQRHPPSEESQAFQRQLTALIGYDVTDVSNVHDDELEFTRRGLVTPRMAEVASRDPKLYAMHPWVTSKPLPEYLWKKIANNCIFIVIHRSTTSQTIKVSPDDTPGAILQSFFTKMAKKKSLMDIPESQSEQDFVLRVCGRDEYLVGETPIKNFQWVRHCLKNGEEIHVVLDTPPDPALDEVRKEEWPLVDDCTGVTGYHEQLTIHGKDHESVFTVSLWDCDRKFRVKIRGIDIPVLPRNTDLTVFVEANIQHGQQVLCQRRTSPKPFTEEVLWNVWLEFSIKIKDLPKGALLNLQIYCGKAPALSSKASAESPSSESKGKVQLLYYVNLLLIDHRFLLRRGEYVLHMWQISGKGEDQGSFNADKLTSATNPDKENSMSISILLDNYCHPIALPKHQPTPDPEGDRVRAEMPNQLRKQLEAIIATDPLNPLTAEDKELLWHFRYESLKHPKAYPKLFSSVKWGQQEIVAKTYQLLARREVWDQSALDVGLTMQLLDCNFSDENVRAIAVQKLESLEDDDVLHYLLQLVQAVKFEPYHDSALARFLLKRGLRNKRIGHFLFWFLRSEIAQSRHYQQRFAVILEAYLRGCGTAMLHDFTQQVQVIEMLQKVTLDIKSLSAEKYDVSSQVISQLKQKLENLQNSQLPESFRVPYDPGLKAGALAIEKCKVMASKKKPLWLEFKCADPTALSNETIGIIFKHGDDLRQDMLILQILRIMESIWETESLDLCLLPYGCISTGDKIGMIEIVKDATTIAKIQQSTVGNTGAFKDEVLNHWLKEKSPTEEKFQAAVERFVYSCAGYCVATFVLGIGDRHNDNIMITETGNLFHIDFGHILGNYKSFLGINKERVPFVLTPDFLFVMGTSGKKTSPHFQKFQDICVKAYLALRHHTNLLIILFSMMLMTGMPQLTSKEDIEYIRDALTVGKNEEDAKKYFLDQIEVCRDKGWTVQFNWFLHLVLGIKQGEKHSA
Experimental: (§1) Promega ADP-Glo Max assay kit (Cat. No. V7002) was utilized to determine IC50 values for α, β, δ and γ isoforms of human Class I PI3 kinases (Millipore). […] Reactions were incubated at room temperature for 2 hours followed by addition of 25 uL of stop solution. After a 40-minute incubation at room temperature, 50 uL of Promega detection mix was added followed by incubation for 1 hour at room temperature. Plates were then read on Envision plate reader in lunimescence mode. Data was converted to % inhibition using the following equation below:
(§2) [formula] where S is the sample luminescence, Pos is a positive control without added PI3K, Neg is the negative control without added compound. Data was then plotted as % inhibition vs compound concentration.
The target in test [2] is δ isoform of human Class I PI3 kinases (Homo sapiens (Human), UniProt O00329). The experiment in a line: PI3-Kinase Promega ADP-Glo Max assay, δ isoform. The following applies: read-out: PI3K δ IC50. Format: biochemical.
Experimental: as §1, §2
In test [3] the target is α isoform of human Class I PI3 kinases (Homo sapiens (Human), UniProt P42336). The experiment in a line: PI3-Kinase Promega ADP-Glo Max assay, α isoform. It counts as biochemical. The settings on record: read-out: PI3K α IC50.
Chain of α isoform of human Class I PI3 kinases (P42336 whole entry, canonical isoform): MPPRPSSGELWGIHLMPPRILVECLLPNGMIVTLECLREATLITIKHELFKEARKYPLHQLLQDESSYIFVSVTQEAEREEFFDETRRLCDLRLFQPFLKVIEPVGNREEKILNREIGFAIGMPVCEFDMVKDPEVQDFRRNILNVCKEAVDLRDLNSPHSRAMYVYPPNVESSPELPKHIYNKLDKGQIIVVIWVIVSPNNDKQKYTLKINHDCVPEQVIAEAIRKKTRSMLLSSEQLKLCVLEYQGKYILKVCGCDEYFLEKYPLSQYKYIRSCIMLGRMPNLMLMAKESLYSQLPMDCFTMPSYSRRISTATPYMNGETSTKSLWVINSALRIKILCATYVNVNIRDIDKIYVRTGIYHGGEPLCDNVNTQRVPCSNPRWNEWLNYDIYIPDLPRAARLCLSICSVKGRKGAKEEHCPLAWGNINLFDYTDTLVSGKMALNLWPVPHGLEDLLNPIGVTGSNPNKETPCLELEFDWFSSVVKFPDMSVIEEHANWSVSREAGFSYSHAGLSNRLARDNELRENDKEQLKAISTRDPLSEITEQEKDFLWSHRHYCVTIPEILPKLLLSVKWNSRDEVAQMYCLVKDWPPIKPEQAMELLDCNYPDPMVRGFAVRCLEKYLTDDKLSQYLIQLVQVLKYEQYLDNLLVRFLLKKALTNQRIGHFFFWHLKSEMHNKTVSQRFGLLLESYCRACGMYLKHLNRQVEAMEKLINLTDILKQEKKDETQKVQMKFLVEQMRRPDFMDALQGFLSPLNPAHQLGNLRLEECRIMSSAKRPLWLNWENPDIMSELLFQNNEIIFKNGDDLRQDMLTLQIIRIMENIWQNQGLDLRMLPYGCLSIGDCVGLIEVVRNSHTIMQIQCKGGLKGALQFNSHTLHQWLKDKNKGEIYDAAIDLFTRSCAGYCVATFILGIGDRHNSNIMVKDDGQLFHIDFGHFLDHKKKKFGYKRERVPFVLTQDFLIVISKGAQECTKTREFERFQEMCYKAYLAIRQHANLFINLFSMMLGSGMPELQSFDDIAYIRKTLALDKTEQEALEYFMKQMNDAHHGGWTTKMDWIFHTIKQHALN
Chain of α isoform of human Class I PI3 kinases (P27986 whole entry partner, canonical isoform): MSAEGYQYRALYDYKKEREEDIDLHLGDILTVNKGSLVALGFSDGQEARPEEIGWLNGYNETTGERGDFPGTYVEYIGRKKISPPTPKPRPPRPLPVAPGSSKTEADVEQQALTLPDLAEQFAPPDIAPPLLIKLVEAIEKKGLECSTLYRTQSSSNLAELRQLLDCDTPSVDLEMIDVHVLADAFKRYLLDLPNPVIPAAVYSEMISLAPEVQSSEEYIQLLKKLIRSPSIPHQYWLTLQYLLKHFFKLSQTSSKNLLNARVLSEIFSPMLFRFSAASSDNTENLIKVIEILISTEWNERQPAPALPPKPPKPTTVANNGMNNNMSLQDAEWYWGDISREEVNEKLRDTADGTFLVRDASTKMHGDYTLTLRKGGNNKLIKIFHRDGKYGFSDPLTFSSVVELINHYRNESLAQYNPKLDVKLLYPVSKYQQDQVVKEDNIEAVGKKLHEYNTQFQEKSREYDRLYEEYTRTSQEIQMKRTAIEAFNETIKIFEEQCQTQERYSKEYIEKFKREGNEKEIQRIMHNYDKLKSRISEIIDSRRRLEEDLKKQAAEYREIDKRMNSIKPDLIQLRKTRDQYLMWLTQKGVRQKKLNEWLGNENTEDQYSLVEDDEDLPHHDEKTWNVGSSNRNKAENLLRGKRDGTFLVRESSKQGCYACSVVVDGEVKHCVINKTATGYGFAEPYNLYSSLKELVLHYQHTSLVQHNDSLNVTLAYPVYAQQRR
Experimental: as §1, §2
The target of test [4] is β isoform of human Class I PI3 kinases (Homo sapiens (Human), UniProt P42338). Put plainly: PI3-Kinase Promega ADP-Glo Max assay, β isoform. It counts as biochemical. The following applies: read-out: PI3K β IC50.
Chain of β isoform of human Class I PI3 kinases (P42338 whole entry, canonical isoform): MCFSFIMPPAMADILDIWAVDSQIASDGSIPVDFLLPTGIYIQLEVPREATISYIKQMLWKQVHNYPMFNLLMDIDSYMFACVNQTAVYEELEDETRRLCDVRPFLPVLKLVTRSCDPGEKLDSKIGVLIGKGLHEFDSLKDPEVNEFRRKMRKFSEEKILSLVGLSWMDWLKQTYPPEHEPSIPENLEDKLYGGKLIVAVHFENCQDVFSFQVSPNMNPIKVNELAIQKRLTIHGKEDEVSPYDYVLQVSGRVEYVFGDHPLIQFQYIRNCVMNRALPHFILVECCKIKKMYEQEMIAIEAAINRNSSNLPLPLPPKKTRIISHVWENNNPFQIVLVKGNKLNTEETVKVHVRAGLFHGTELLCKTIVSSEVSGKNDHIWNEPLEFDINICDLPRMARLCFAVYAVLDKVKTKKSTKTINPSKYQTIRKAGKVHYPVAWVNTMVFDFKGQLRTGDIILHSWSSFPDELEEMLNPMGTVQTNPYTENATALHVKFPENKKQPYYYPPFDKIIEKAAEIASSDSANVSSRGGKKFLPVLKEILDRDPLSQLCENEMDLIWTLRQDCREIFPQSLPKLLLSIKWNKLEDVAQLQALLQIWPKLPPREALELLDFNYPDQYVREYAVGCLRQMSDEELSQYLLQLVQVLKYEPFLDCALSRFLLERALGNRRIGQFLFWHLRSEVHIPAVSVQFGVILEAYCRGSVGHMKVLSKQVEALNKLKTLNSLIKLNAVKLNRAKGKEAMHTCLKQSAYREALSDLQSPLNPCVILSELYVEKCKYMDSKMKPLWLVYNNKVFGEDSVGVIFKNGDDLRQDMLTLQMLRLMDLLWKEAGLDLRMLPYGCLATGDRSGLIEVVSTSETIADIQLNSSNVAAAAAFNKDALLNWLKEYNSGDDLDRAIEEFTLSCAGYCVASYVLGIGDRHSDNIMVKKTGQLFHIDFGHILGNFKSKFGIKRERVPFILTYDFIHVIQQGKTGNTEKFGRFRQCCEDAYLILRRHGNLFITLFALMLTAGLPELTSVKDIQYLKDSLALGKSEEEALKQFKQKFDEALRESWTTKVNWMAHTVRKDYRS
Chain of β isoform of human Class I PI3 kinases (P27986 whole entry partner, canonical isoform): as the sequence (P27986 whole entry partner, canonical isoform) above
Experimental: as §1, §2
The next test relates to PI3K/Akt/mTOR signaling. The experiment in a line: Kinase signaling in blood (phosflow). The settings on record: unfractionated splenocytes or peripheral blood mononuclear cells stimulated with anti-CD3. It counts as cell-based. The procedure: PI3K/Akt/mTOR signaling is measured in blood cells using the phosflow method (Methods Enzymol. (2007) 434:131-54). This method is by nature a single cell assay so that cellular heterogeneity can be detected rather than population averages. This allows concurrent distinction of signaling states in different populations defined by other markers. Phosflow is also highly quantitative. To test the effects of one or more compounds provided herein, unfractionated splenocytes, or peripheral blood mononuclear cells are stimulated with anti-CD3 to initiate T-cell receptor signaling. The cells are then fixed and stained for surface markers and intracellular phosphoproteins. […]
Similarly, aliquots of whole blood are incubated for 15 minutes with vehicle (e.g., 0.1% DMSO) or kinase inhibitors at various concentrations, before addition of stimuli to crosslink the T cell receptor (TCR) (anti-CD3 with secondary antibody) or the B cell receptor (BCR) using anti-kappa light chain antibody (Fab′2 fragments). […] The level of phosphorylation of kinase substrates such as Akt and S6 are then measured by incubating the fixed cells with labeled antibodies specific to the phosphorylated isoforms of these proteins. The population of cells are then analyzed by flow cytometry.

Results on ten compounds are retold here after patent US10329299B2, “Heterocyclic compounds and uses thereof” (Infinity Pharmaceuticals, Inc., priority 2013, dated 2019).

Chain of PI3K-γ (Q9JHG7 whole entry, canonical isoform): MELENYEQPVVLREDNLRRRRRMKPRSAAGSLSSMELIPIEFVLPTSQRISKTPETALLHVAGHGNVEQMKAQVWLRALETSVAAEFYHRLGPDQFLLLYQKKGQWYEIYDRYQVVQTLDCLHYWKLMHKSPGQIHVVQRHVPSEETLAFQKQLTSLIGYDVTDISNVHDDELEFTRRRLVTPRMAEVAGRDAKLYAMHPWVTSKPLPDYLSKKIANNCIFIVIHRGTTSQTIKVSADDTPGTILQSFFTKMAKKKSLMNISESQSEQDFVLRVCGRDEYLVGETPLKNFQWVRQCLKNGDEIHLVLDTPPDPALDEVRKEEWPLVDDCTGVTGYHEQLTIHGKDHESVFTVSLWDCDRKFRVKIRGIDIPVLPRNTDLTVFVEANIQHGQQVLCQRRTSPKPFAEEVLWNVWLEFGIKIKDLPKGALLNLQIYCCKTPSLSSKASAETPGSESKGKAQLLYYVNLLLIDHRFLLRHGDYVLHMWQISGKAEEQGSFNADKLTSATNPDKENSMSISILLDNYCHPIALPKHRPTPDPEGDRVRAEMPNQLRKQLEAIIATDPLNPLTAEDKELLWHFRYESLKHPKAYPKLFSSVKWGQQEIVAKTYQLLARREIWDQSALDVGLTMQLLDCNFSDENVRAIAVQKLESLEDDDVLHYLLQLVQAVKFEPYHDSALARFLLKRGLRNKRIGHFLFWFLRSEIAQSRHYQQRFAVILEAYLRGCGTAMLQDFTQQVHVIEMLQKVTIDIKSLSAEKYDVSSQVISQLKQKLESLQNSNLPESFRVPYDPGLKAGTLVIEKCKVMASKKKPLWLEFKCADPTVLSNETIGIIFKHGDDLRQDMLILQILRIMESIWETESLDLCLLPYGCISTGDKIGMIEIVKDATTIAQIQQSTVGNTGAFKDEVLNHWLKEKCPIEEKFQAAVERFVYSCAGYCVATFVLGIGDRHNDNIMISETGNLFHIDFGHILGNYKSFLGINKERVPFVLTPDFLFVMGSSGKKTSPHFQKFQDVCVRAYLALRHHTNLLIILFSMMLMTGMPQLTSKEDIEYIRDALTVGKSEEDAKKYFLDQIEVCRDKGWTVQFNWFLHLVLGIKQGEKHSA
Text for PI3K-γ: Cells can be treated with test compounds prior to, simultaneously with, or subsequent to the stimulation by C5a.

Turning to `C[C@H](NC(=O)c1c(N)nn2cccnc12)c1cc2cccc(C#CC=O)c2c(=O)n1-c1ccccc1` [Compound 36], on PI3K-γ, the “RAJI δ/Raw264.7 γ IC50 (selectivity)” value is on record as “W (W = >1 to <10)”. Further, the “PI3K δ/PI3K γ IC50 (selectivity)” value in test [1] is “X (X = 10 to <50)”.
As a reminder, the IC50 is the concentration needed to halve the response being measured. With `C[C@H](NC(=O)c1c(N)nn2cccnc12)c1cc2cccc(C#Cc3ccn[nH]3)c2c(=O)n1-c1ccccc1` [Compound 43], the half-inhibitory concentration (IC50) in test [2] was 5 to 10 µM; in test [3], 5 to 10 µM; in test [4], 5 to 10 µM; in test [1] (read-out: PI3K γ IC50), 0.1 to 0.5 µM. Moreover, the “RAJI δ/Raw264.7 γ IC50 (selectivity)” value on PI3K-γ is “X (X = 10 to <50)”. For the same compound, in test [1], the “PI3K δ/PI3K γ IC50 (selectivity)” value is recorded as “Y (Y = 50 to <850)”.
On to `C/C=C/c1cccc2cc([C@H](C)NC(=O)c3c(N)nn4cccnc34)n(-c3ccccc3)c(=O)c12` [Compound 70], for which the “PI3K δ/PI3K γ IC50 (selectivity)” value in test [1] was “X (X = 10 to <50)”.
Take `C[C@H](NC(=O)c1c(N)nn2cccnc12)c1cc2cccc(C#CC3CNC3)c2c(=O)n1-c1ccccc1` [Compound 74]: the “RAJI δ/Raw264.7 γ IC50 (selectivity)” value on PI3K-γ is recorded as “W (W = >1 to <10)”. Also, the “PI3K δ/PI3K γ IC50 (selectivity)” value in test [1] is reported as “W (W = >1 to <10)”.
For `C[C@H](NC(=O)c1c(N)nn2cccnc12)c1cc2cccc(C#Cc3cn[nH]c3)c2c(=O)n1-c1ccccc1` [Compound 80], on PI3K-γ, the “RAJI δ/Raw264.7 γ IC50 (selectivity)” value is “Y (Y = 50 to <850)”. Besides, in test [1], the “PI3K δ/PI3K γ IC50 (selectivity)” value is reported as “Y (Y = 50 to <850)”.
Turning to `CC(=O)N1CCC(C#Cc2cccc3cc([C@H](C)NC(=O)c4c(N)nn5cccnc45)n(-c4ccccc4)c(=O)c23)CC1` [Compound 82], the “RAJI δ/Raw264.7 γ IC50 (selectivity)” value at PI3K-γ is recorded as “X (X = 10 to <50)”. Besides, the “PI3K δ/PI3K γ IC50 (selectivity)” value in test [1] is on record as “X (X = 10 to <50)”.
Take `C[C@H](NC(=O)c1c(N)nn2cccnc12)c1cc2cccc(C#CC3CCN(S(C)(=O)=O)CC3)c2c(=O)n1-c1ccccc1` [Compound 83]: the “RAJI δ/Raw264.7 γ IC50 (selectivity)” value on PI3K-γ is “X (X = 10 to <50)”. Besides, the “PI3K δ/PI3K γ IC50 (selectivity)” value in test [1] is reported as “X (X = 10 to <50)”.
Take `Cc1c(C#Cc2cccc3nc([C@H](C)NC(=O)c4c(N)nn5cccnc45)n(-c4ccccc4)c(=O)c23)cnn1C` [Compound 88, (S)-2-amino-N-(1-(5-((1,5-dimethyl-1H-pyrazol-4-yl)ethynyl)-4-oxo-3-phenyl-3,4-dihydroquinazolin-2-yl)ethyl)pyrazolo[1,5-a]pyrimidine-3-carboxamide]: at PI3K-γ, the “RAJI δ/Raw264.7 γ IC50 (selectivity)” value is recorded as “Y (Y = 50 to <850)”. Besides, the “PI3K δ/PI3K γ IC50 (selectivity)” value in test [1] is recorded as “X (X = 10 to <50)”.
The like results for `C[C@H](NC(=O)c1c(N)nn2cccnc12)c1cc2cccc(NC(=O)c3cnn(C)c3)c2c(=O)n1-c1ccccc1` [Compound 90] were, in that order, “X (X = 10 to <50)” and “W (W = >1 to <10)”.
Turning to `CO[C@H]1C[C@@H]2CC[C@@H](C)[C@@](O)(O2)C(=O)C(=O)N2CCCC[C@H]2C(=O)O[C@H]([C@H](C)C[C@@H]2CC[C@@H](O)[C@H](OC)C2)CC(=O)[C@H](C)/C=C(\C)[C@@H](O)[C@@H](OC)C(=O)[C@H](C)C[C@H](C)/C=C/C=C/C=C/1C` [rapamycin], in the test with PI3K/Akt/mTOR signaling, the “anti-CD3 mediated phosphorylation of Akt-S473” value was “enhances” and the “anti-CD3 mediated phosphorylation of S6” value is “inhibits”.
